From patent publication US4347319A, “Microbiological epoxidation process” (priority 1980, dated 1982)
Read-outs that look alike come from different tables or passages of the source.

What was measured:
[1] = system: Methylosinus trichosporium CRL 15 NRRL B-11,202; experiment: Sec. alcohol oxidation by cell suspensions of methanol-grown cells; type: cell-based; conditions: sec. alcohol to methyl ketone
Description: (§1) In this example, the procedure of Example 1 was repeated except that a plurality of the methane-utilizing methylotrophic microorganisms of the invention were each aerobically grown in a methanol-containing nutrient medium instead of a methane-containing medium. The nutrients in the medium were the same as indicated in Example 1 except that 0.4% v/v methanol was used as the alcohol dehydrogenase enzyme inducer and major source of carbon and energy for growth. Following growth the cells were harvested and washed as described in Example 1. The resting cells of the induced methanol-grown methylotrophic microorganisms were then contacted with a […] under aerobic conditions in a buffered solution by the procedure described in Example 1.

[2] = system: Methylobacterium organophilum CRL 26 NRRL B-11,222; experiment: as above; type: cell-based; conditions: sec. alcohol to methyl ketone
Description: as §1

[3] = system: Methylobacter chroococcum CRL M6 NRRL B-11,214; experiment: as above; type: cell-based; conditions: sec. alcohol to methyl ketone
Description: as §1

[4] = system: Methylocystis parvus CRL 18 NRRL B-11,204; experiment: as above; type: cell-based; conditions: sec. alcohol to methyl ketone
Description: as §1

[5] = system: Methylomonas methanica CRL M4P NRRL B-11,205; experiment: as above; type: cell-based; conditions: sec. alcohol to methyl ketone
Description: as §1

[6] = system: Methylobacter vinelandii CRL M5Y NRRL B-11,218; experiment: as above; type: cell-based; conditions: sec. alcohol to methyl ketone
Description: as §1

[7] = system: Methylococcus capsulatus CRL M1 NRRL B-11,219; experiment: as above; type: cell-based; conditions: sec. alcohol to methyl ketone
Description: as §1

[8] = system: Hansenula polymorpha ATCC 26012; experiment: Oxidation of sec-alcohols to ketones by cell suspensions of yeasts; type: cell-based; conditions: sec-alcohol to methyl ketone
[9] = system: purified secondary alcohol dehydrogenase from Pichia sp. NRRL Y-11,328; experiment: Substrate specificity, electron acceptor and stoichiometry of purified yeast SADH; type: biochemical; conditions: examined spectrophotometrically
[10] = system: cell extract of Kloeckera sp. strain A2 NRRL-Y-11,420; experiment: Oxidation of secondary alcohols to methylketone by cell extracts of yeasts; type: biochemical; conditions: methanol-grown; cell extract + NAD^+; sec. alcohol to methyl ketone; gas chromatography
[11] = system: cell extract of Candida utilis ATCC 26,387; experiment: as above; type: biochemical; conditions: methanol-grown; cell extract + NAD^+; sec. alcohol to methyl ketone; gas chromatography
[12] = system: Pichia sp. NRRL-Y-11328; experiment: Oxidation of sec-alcohols to ketones by cell suspensions of yeasts; type: cell-based; conditions: sec-alcohol to methyl ketone
[13] = system: cell extract of Torulopsis sp. strain A1 NRRL-Y-11,419; experiment: Oxidation of secondary alcohols to methylketone by cell extracts of yeasts; type: biochemical; conditions: methanol-grown; cell extract + NAD^+; sec. alcohol to methyl ketone; gas chromatography
[14] = system: Kloeckera sp. Strain A2 (NRRLY-11,420); experiment: Oxidation of sec-alcohols to ketones by cell suspensions of yeasts; type: cell-based; conditions: sec-alcohol to methyl ketone
[15] = system: cell extract of Pichia sp. NRRL-Y-11,328; experiment: Oxidation of secondary alcohols to methylketone by cell extracts of yeasts; type: biochemical; conditions: methanol-grown; cell extract + NAD^+; sec. alcohol to methyl ketone; gas chromatography
[16] = system: Torulopsis sp. Strain A1 (NRRLY-11,419); experiment: Oxidation of sec-alcohols to ketones by cell suspensions of yeasts; type: cell-based; conditions: sec-alcohol to methyl ketone
[17] = system: cell extract of Hansenula polymorpha ATCC 26,012; experiment: Oxidation of secondary alcohols to methylketone by cell extracts of yeasts; type: biochemical; conditions: methanol-grown; cell extract + NAD^+; sec. alcohol to methyl ketone; gas chromatography
[18] = system: Candida utilis ATCC 26387; experiment: Oxidation of sec-alcohols to ketones by cell suspensions of yeasts; type: cell-based; conditions: sec-alcohol to methyl ketone
[19] = system: Methylomonas rosaceus (CRL M10P) NRRL B-11,212; type: cell-based
Description: (§2) The pH of the nutrient medium was adjusted to 7.0 by the addition of acid or base and 50 ml samples of the nutrient medium were charged into a plurality of 300 ml shaker flasks. The shaker flasks were inoculated with an inoculating loop of cells from an agar plate containing homogeneous colonies of the microorganisms on the plate (the purity of the isolates was confirmed by microscopic examination. The isolates had been maintained on agar plates under an atmosphere of methane and air having a 1:1 v/v gas ratio which had been transferred evey two weeks. The gaseous phase of the inoculated flasks was then replaced with a gas mixture comprised of methane and air having a ratio of 1:1 on a v/v basis. The inoculated flasks were sealed air tight and were incubated on a rotary shaker of orbital radius 2.5 cm at 250 rpm and at 30° C. for two days until turbidity in the medium had developed.
(§3) The cells were harvested by centrifugation at 10,000×g. at 4° C. for 30 minutes. The cell pellet was washed twice with a 0.15 M phosphate buffer at a pH of 7.0 (containing 0.002 M MgCl2). The washed cells were then suspended in a 0.15 M phosphate buffer at pH 7.0.
(§4) A 0.5 ml sample of each washed cell suspension (2 mg cells) was put into 10 ml vials at 4° C. which were sealed with a rubber cap. The gaseous phase of the vials was removed with vacuum and then was replaced with a gas mixture of the oxidative substrate (e.g., methane) and oxygen at a 1:1 v/v ratio. The vials were then incubated at 30 ° C. on a rotary shaker at 300 rpm. Samples of product (3 μl) were withdrawn periodically with a microsyringe and the products were analyzed by gas chromatography (ionization flame detector column).
(§5) The newly discovered and isolated microorganism strains of the present invention were each grown aerobically in the presence of methane in the manner described above. The methane-grown microbial cells were then washed, recovered and put to use in oxidizing an oxidative substrate by the procedure described above except in the case of a liquid substrate 10 μl of the substrate were used.

[20] = system: Methylobacter bovis (CRL M1Y) NRRL B-11,216; experiment: Oxidation by washed cell suspensions of methane-grown cells; type: cell-based
Description: as §2, with “The inoculated flasks were sealed air tight and were incubated on a rotary shaker of orbital radius 2.5 cm at 250 rpm and at 30° C. for two days until turbidity in the medium had developed.” left out
as §3, §4, §5

[21] = system: Methylomonas albus (CRL M8Y) NRRL B-11,207; experiment: as above; type: cell-based
Description: as §2, §3, §4, §5

[22] = system: Methylobacter chroococcum (CRL M6) NRRL B-11,214; experiment: as above; type: cell-based
Description: as §2, §3, §4, §5

[23] = system: Methylobacter chroococcum (CRL 23 PM8) NRRL B-11,215; experiment: as above; type: cell-based
Description: as §2, §3, §4, §5

[24] = system: Methylosinus trichosporium (CRL 15 PM1) NRRL B-11,202; experiment: as above; type: cell-based
Description: as §2, §3, §4, §5

[25] = system: Methylosinus sporium (CRL 16 PM2) NRRL B-11,203; experiment: as above; type: cell-based
Description: as §2, §3, §4, §5

[26] = system: Methylomonas streptobacterium (CRL 17 PM3) NRRL B-11,208; experiment: as above; type: cell-based
Description: as §2, §3, §4, §5

[27] = system: Methylomonas agile (CRL 22 PM9) NRRL B-11,209; experiment: as above; type: cell-based
Description: as §2, §3, §4, §5

[28] = system: Methylomonas methanica (CRL M4P) NRRL B-11,205; experiment: as above; type: cell-based
Description: as §2, §3, §4, §5

[29] = system: Methylobacter bovis (CRL 19 PM5) NRRL B-11,217; experiment: as above; type: cell-based
Description: as §2, §3, §4, §5

[30] = system: Methylobacterium organophilum (CRL 26 R6) NRRL B-11,222; experiment: as above; type: cell-based
Description: as §2, §3, §4, §5

[31] = system: Methylococcus minimus (CRL 24 PM12) NRRL B-11,220; experiment: as above; type: cell-based
Description: as §2, §3, §4, §5

[32] = system: Methylococcus capsulatus (CRL 25 PM13) NRRL B-11,221; experiment: as above; type: cell-based
Description: as §2, §3, §4, §5

[33] = system: Methylococcus capsulatus (CRL M1) NRRL B-11,219; experiment: as above; type: cell-based
Description: as §2, §3, §4, §5

[34] = system: Methylobacter vinelandii (CRL M5Y) NRRL B-11,218; experiment: as above; type: cell-based; conditions: for Conversion Rate: methane-grown cells, n-pentane to 2-pentanone, n-hexane to 2-hexanone
Description: as §2, §3, §4, §5

[35] = system: Methylosinus trichosporium OB3b (NRRL B-11,196); experiment: Oxidation by cell suspensions of methane-grown cells; type: cell-based; conditions: growth substrate Methane; n-alkane to secondary alcohol
Description: as §2, §3, §4
(§6) The conditions for preparing the cell suspensions or the cell-free particulate fractions from methane-grown methylotroph microorganisms is the same as described above.

[36] = system: Methylococcus capsulatus (Texas, ATCC 19,069); experiment: as above; type: cell-based; conditions: growth substrate Methane; n-alkane to secondary alcohol
Description: as §2, §3, §4, §6

[37] = system: Methylomonas methanica (CRL 21 PM7) NRRL B-11,206; experiment: Oxidation by washed cell suspensions of methane-grown cells; type: cell-based; conditions: methane-grown cells; n-pentane to 2-pentanone, n-hexane to 2-hexanone
Description: as §2, §3, §4, §5

[38] = methane-grown cells, n-pentane to 2-pentanone, n-hexane to 2-hexanone

CCCCC(C)O (centres unmarked) [2-Hexanol]
Conversion Rates [1]: 0.06 μmoles/hr/mg protein
Conversion Rates [2]: 0.09 μmoles/hr/mg protein
Conversion Rates [3]: 0.02 μmoles/hr/mg protein
Conversion Rates [4]: 0.05 μmoles/hr/mg protein
Conversion Rates [5]: 0.03 μmoles/hr/mg protein
Conversion Rates [6]: 0.02 μmoles/hr/mg protein
Conversion Rates [7]: 0.08 μmoles/hr/mg protein
Conversion Rate ([8]; growth substrate Ethanol): 0.54 μmoles/hr/mg of protein
Conversion Rate ([8]; growth substrate Methanol): 0.72 μmoles/hr/mg of protein
Conversion Rate ([8]; growth substrate Methylamine): 0.62 μmoles/hr/mg of protein
Conversion Rate ([8]; growth substrate Methylformate): 0.70 μmoles/hr/mg of protein
Conversion Rate ([8]; growth substrate Propylamine): 0.48 μmoles/hr/mg of protein
oxidation by the purified enzyme [9]: catalyzed the oxidation
Conversion Rate [10]: 0.25 μmoles/hr/mg Protein
Conversion Rate [11]: 0.45 μmoles/hr/mg Protein
Conversion Rate ([12]; growth substrate Ethanol): 0.28 μmoles/hr/mg of protein
Conversion Rate ([12]; growth substrate Methanol): 0.50 μmoles/hr/mg of protein
Conversion Rate ([12]; growth substrate Methylamine): 0.31 μmoles/hr/mg of protein
Conversion Rate ([12]; growth substrate Methylformate): 0.48 μmoles/hr/mg of protein
Conversion Rate ([12]; growth substrate Propylamine): 0.21 μmoles/hr/mg of protein
Conversion Rate [13]: 0.21 μmoles/hr/mg Protein
Conversion Rate ([14]; growth substrate Ethanol): 0.12 μmoles/hr/mg of protein
Conversion Rate ([14]; growth substrate Methanol): 0.25 μmoles/hr/mg of protein
Conversion Rate ([14]; growth substrate Methylamine): 0.10 μmoles/hr/mg of protein
Conversion Rate ([14]; growth substrate Methylformate): 0.28 μmoles/hr/mg of protein
Conversion Rate ([14]; growth substrate Propylamine): 0.11 μmoles/hr/mg of protein
Conversion Rate [15]: 0.60 μmoles/hr/mg Protein
Conversion Rate ([16]; growth substrate Ethanol): 0.20 μmoles/hr/mg of protein
Conversion Rate ([16]; growth substrate Methanol): 0.21 μmoles/hr/mg of protein
Conversion Rate ([16]; growth substrate Methylamine): 0.12 μmoles/hr/mg of protein
Conversion Rate ([16]; growth substrate Methylformate): 0.25 μmoles/hr/mg of protein
Conversion Rate ([16]; growth substrate Propylamine): 0.10 μmoles/hr/mg of protein
Conversion Rate [17]: 0.51 μmoles/hr/mg Protein
Conversion Rate ([18]; growth substrate Ethanol): 0.72 μmoles/hr/mg of protein
Conversion Rate ([18]; growth substrate Methanol): 0.8 μmoles/hr/mg of protein
Conversion Rate ([18]; growth substrate Methylamine): 0.61 μmoles/hr/mg of protein
Conversion Rate ([18]; growth substrate Methylformate): 0.75 μmoles/hr/mg of protein
Conversion Rate ([18]; growth substrate Propylamine): 0.52 μmoles/hr/mg of protein

C=CCC [Butene-1]
Oxidative Conversion Rates [19]: 3.1
Oxidative Conversion Rates [20]: 1.1
Oxidative Conversion Rates [21]: 1.8
Oxidative Conversion Rates [22]: 0.7
Oxidative Conversion Rates [23]: 0.82
Oxidative Conversion Rates [24]: 1.8
Oxidative Conversion Rates [25]: 1.2
Oxidative Conversion Rates [26]: 2.5
Oxidative Conversion Rates [27]: 0.5
Oxidative Conversion Rates [28]: 2.8
Oxidative Conversion Rates [29]: 1.3
Oxidative Conversion Rates [30]: 0.9
Oxidative Conversion Rates [31]: 1.5
Oxidative Conversion Rates [32]: 1.9
Oxidative Conversion Rates [33]: 1.3
Oxidative Conversion Rates ([34]; methane-grown washed cells, 30° C., methane to methanol, alkene to 1,2-epoxide): 0 μmole/hr/mg protein

CCCCCC [n-Hexane]
Conversion Rate [35]: 0.01 μmoles/hr/^5 mg. protein
Conversion Rate [36]: 0.01 μmoles/hr/^5 mg. protein
Conversion Rate [24]: 0.04
Conversion Rate [37]: 0.01 μmole/hr/mg protein
Conversion Rate [33]: 0.08
Conversion Rate [34]: 0.01 μmole/hr/mg protein

CCCCC [n-Pentane]
Conversion Rate [35]: 0.06 μmoles/hr/^5 mg. protein
Conversion Rate [36]: 0.032 μmoles/hr/^5 mg. protein
Conversion Rate [24, 38]: 0.08 μmole/hr/mg protein
Conversion Rate ([30]; growth substrate Methane, n-alkane to secondary alcohol): 0.01 μmoles/hr/^5 mg. protein
Conversion Rate [30, 38]: 0.18 μmole/hr/mg protein
Conversion Rate [37]: 0.06 μmole/hr/mg protein
Conversion Rate [33, 38]: 0.15 μmole/hr/mg protein
Conversion Rate [34]: 0.04 μmole/hr/mg protein
